The subject of one series is Aβ(1–40). Set-up: method as in PMID 22086555. Particulars: cited from earlier work.
The nature of series [1]: Liver microsomes stability with UDPGA and alamethacin (glucuronidation). Type of series: in vitro ADME. Particulars: 0.5 mg/mL microsomes protein, read-out: t 1/2 in liver microsomes with UDPGA and alamethacin. The source says:
Microsomes and hepatocytes stability procedures and their parameters (the apparent intrinsic clearance (Cl int,app), unbound apparent intrinsic clearance (Cl u, int,app), scaled intrinsic clearance (Cl int,scaled), unbound scaled intrinsic clearance (Cl u, int,scaled), and Cl hep) calculation methods were shown in supplemental information (Supplemental Methods). The metabolites identification methods including LC-MS conditions was also found in supplemental information (Supplemental Methods). Several marker compounds as quality control were assayed (Table S6).
(§1) MS/MS. Natural logarithm of peak area ratios (compound peak area normalized by IS peak area) were plotted against time and half-life calculated. […]
In vitro stability in liver microsomes and hepatocytes
Half-life (t1/2) of SLM or SLOH in liver microsomes was determined in duplicate. In phase I reaction, the compound (1 μM) was incubated with liver microsomes (0.5 mg/mL) in 100 mM sodium phosphate buffer (pH 7.4) including 81 mM Na2HPO4 and 19 mM NaH2PO4 ) at 37 °C, the reaction mixture was prewarmed at 37 °C for 2 minutes before adding NADPH (1.0 mM). In phase II reaction, the compound (1 μM) was incubated with liver microsomes (0.5 mg/mL) in 100 mM Tris-HCl buffer (pH 7.4) containing 5 mM MgCl2, 10 μg/mL alamethicin, and 2% (w/v) BSA. After pre-incubated on ice for 15 min, the reactions were initiated with the addition of UDPGA (5.0 mM). Aliquots of the reaction mixture at 0, 5, 10, 15, 30 or 45 minutes were added to 4 folds acetonitrile (ACN) containing internal standard (IS), and the samples were centrifuged at 9,659 g for 5 mins before LC-MS/MS analysis of substrate […]
disappearance. […]
Hepatocytes were suspended at 0.5 × 10^6 viable cells/mL of HT Medium and prewarmed at 37 °C for 10 minutes. Incubations were initiated with the addition of SLM and SLOH (final concentration=1 μM) and were conducted at 37 °C, 75% relative humidity, and 5% CO2. The reaction was stopped at 0, 5, 15, 30, 60, 90, 120 minutes by the addition of 4 folds ACN containing berberine chloride as internal standard
Background: Liver microsomes are a subcellular fraction often used to study metabolism.

The subject of another series is mouse hepatocytes. Briefly: Hepatocyte stability. It counts as in vitro ADME. Particulars: well-stirred model.
Series [2] is described as follows: Liver microsomes stability with NADPH. It counts as in vitro ADME. Particulars: human; for CLint scaled at 1 μM / microsomal CLint at 1 μM: liver microsomes, pH 7.4; for CLint scaled at 1 μM: read-out: Microsomes Cl int,scaled; for Microsomes scaled Cl hep: well-stirred model; for Microsomes Cl u, int,app: Cl int,app / f u,mic; for microsomal CLint at 1 μM: NADPH, read-out: Microsomes Cl int,app.

A short description of series [3]: Brain distribution by brain slices experiment. Type of series: in vitro ADME, mouse. Particulars: mouse. The procedure: The unbound volume of distribution in the brain (V u, brain) was determined in fresh brain slices using the protocol published by Friden et al.[25].
Series [4] in a line: Plasma binding by RED device. For all read-outs here: tested at 0.4 µM. Type of series: in vitro ADME, mouse. The conditions noted are these: for plasma binding: mice; for f u,plasma %: mouse plasma, RED device, 4 h, 37 °C. The procedure: Nonspecific binding in plasma (f u, plasma), microsomes (f u, mic) and hepatocyte (f u, hep) were determined using the method seen in supplemental information (Supplemental Methods). […]
All validation compounds were incubated at 37 °C over 4 h, and in triplicate. For […]
plasma stability, 10 mM DMSO solutions of SLM and SLOH were diluted to 40 µM (10% DMSO). Plasma […]
shaking water bath (60 oscillations/min approx.). The assay was started by addition of 6 µL aliquots to […]
the plasma (final DMSO incubation concentration 0.1%). […]
as §1
placed into the sample chamber (indicated by the red ring) with 400 µL of PBS into the adjacent chamber.
The plate was sealed with a self-adhesive lid and incubated at 37 °C on an orbital shaker (1.5 g approx.) for 4 h. Aliquots (100 µL) were removed from each side of the insert, and analyzed after protein precipitation using 4 folds acetonitrile (ACN) containing berberine chloride as internal standard (IS) by LC-MS/MS (Analytical me thod seen below). The experimental procedure outlined in the Thermo Scientific RED device systems brochure was adopted in the present study . […]

A short description of series [5]: Blood cell partitioning (blood to plasma ratio). Type of series: in vitro ADME. The conditions noted are these: fresh whole blood, 37 °C. The procedure:
The blood to plasma ratio was determined using the method shown in supplemental information (Supplemental Methods). […] The blood cell partitioning was calculated as follows. […] Plasma, liver microsomes and hepatocyte binding by RED device The stability of the compounds in plasma, liver microsomes and hepatocyte were studied to ensure the reliability of the binding data. Hepatocyte was deactivated by leaving them on a bench for 2 days and going through a freeze thaw cycle thereafter.

A further series has as its target T1, BCRP (Homo sapiens, UniProt Q9UNQ0).
T1 sequence (Q9UNQ0 1-655): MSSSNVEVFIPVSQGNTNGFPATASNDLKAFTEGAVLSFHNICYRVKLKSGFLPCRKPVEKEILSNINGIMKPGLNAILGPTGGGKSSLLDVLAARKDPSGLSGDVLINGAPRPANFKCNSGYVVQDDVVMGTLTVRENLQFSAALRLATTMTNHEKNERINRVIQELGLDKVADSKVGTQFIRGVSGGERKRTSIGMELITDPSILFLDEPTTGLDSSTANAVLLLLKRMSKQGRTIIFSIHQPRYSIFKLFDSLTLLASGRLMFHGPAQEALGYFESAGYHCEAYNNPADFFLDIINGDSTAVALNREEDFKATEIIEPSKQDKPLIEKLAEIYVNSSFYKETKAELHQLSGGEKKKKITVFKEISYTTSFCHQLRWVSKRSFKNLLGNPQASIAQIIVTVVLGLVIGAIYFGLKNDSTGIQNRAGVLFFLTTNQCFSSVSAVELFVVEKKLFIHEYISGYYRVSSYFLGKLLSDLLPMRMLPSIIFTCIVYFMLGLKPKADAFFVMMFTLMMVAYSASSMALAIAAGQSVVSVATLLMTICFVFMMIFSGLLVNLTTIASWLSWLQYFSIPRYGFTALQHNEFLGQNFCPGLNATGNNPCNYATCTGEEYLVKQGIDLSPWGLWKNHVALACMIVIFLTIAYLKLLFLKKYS
Briefly: Efflux transporter identification in Caco-2 cell with BCRP specific inhibitors. Particulars: efflux ratio reduced by fumitremorgin C and Ko134, concentration-dependent. (In general: Caco-2 cells form a polarised layer with tight junctions and transporters.)

Where two headings read alike, the source gives them in different places.

As for `COCCOCCn1c2ccccc2c2cc(/C=C/c3cc[n+](C)c4ccccc34)ccc21.[I-]` [SLM, (E)-4-(2-(9-(2-(2-methoxyethoxy)ethyl)-9H-carbazol-3-yl)-vinyl)-1-methyl-quinolin-1-iumiodide], the “affinity for Aβ(1–40)” value in the series on Aβ(1–40) is on record as “reasonably good affinity”. Besides, the half-life at 1 μM in series [1] (ICR/CD-1, mouse, pH 7.4, mice) was more than 8.33 h. Further, the half-life at 1 μM in series [1] (pH 7.4, human) was more than 8.33 h. Besides, the “Hepatocyte scaled Cl hep” value in the series on mouse hepatocytes was 8.67 ± 1.67 mL/min/kg. Also, in series [2], the CLint scaled at 1 μM came to 140 ± 19 mL/min/kg; the “Microsomes scaled Cl hep” value turned out to be 1.67 ± 0.167 mL/min/kg; the “Microsomes Cl u, int,app” value is 1.50 ± 0.200^$ mL/min/mg; the microsomal CLint at 1 μM amounted to 110 ± 20 µL/min/mg. For the same molecule, in series [3], the “V u,brain (AD)” value amounted to 1.50 ± 0.580 mL/g brain and the “V u,brain (WT)” value is given as 2.10 ± 0.650 mL/g brain. Moreover, in series [4], the plasma binding is more than 95% and the “f u,plasma %” value is 1.70 ± 0.380^$ %. For the same molecule, the blood plasma ratio at 1 h, 1 μM in series [5] (human) is approximately 0.82. Also, the blood plasma ratio at 1 h, 1 μM in series [5] (mouse) is approximately 1.4. Also, the BCRP substrate identification entry at BCRP is “substrates”.

With `COCCOCCn1c2ccccc2c2cc(/C=C/c3cc[n+](CCO)c4ccccc34)ccc21` [SLOH, (E)-1-(2-hydroxyethyl)-4-(2-(9-(2-(2-metho-xyethoxy)-ethyl)-9H-carbazol-3-yl)vinyl) quinolin-1-ium chloride], the “affinity for Aβ(1–40)” value with Aβ(1–40) is listed as “reasonably good affinity”. Also, the half-life at 1 μM in series [1] (ICR/CD-1, mouse, pH 7.4, mice) is more than 8.33 h. Further, in series [1] (pH 7.4, human), the half-life at 1 μM was more than 8.33 h. For the same molecule, the “Hepatocyte scaled Cl hep” value in the series on mouse hepatocytes came out at 9.67 ± 1.67 mL/min/kg. Moreover, in series [2], the CLint scaled at 1 μM is 82 ± 13 mL/min/kg; the “Microsomes scaled Cl hep” value was found to be 2 ± 0.333 mL/min/kg; the “Microsomes Cl u, int,app” value was 1.00 ± 0.160^$ mL/min/mg; the microsomal CLint at 1 μM was 70 ± 10 µL/min/mg. Also, in series [3], the “V u,brain (AD)” value came out at 1.20 ± 0.240 mL/g brain and the “V u,brain (WT)” value turned out to be 1.40 ± 0.400 mL/g brain. Moreover, in series [4], the plasma binding is more than 95% and the “f u,plasma %” value is recorded as 3.50 ± 0.700^$ %. The blood plasma ratio at 1 h, 1 μM in series [5] (human) was approximately 0.76. Moreover, the blood plasma ratio at 1 h, 1 μM in series [5] (mouse) was approximately 1.3. Further, at BCRP, the BCRP substrate identification entry was “substrates”.

Values taken from publication PMC5703966, “Systemic clearance and brain distribution of carbazole-based cyanine compounds as Alzheimer’s disease drug candidates” (Scientific Reports, 2017).
